{
  "source": "patent US11548849B2",
  "about": "“Alcohol derivatives as KV7 potassium channel openers” (H. Lundbeck A/S, priority 2019, dated 2023)",
  "data": [
    {"target": "T1, hKv7.2/hKv7.3 (Homo sapiens, UniProt O43525+O43526)", "T1 construct": "P2A self-cleaving peptide (between Kv7.3 and Kv7.2; the remnant would stay on the upstream protein) (C); expressed in transfected cells", "experiment": "Thallium influx assay for potassium channel activation", "assay_type": "cell-based", "conditions": "HEK-hKv7.2/hKv7.3 cells; FLIPR Potassium Assay kit; AUC readout normalized to a reference compound", "protocol": "A synthesized cDNA fragment encoding human Kv7.3 and human Kv7.2 separated by a P2A sequence was inserted into the pcDNA5/FRT/TO vector using the BamHI and XhoI restriction sites. The construct was then transfected into HEK Flp-In 293 cells using Lipofectamine2000. The transfected cells were grown for 48 hours in DMEM containing 10% (v/v) FBS and 1% PenStrep and subsequently maintained under selection in DMEM containing 10% (v/v) FBS, 1% PenStrep and 200 ug/mL Hygromycin B at 37° C. in a humidified atmosphere of 5% CO2.\nThe thallium influx assay for potassium channel activation was performed analogously to a published procedure (C. D. Weaver, et al., J Biomol Screen 2004, 9, 671-677) using the FLIPR Potassium Assay kit (Molecular Devices). HEK-hKv7.2/hKv7.3 cells were plated onto 96-well, black-walled, clear-bottomed culture plates (Corning, Acton, Mass., USA) at a density of 80,000 cells/well (100 μl/well) if the cells were assayed the following day, or 40,000 cells/well (100 μl/well) if the cells were assayed two days after seeding.\nOn the assay day, the medium was removed after which 50 uL/well of test compound diluted to 2× final concentration in HBSS containing 20 mM HEPES, and 50 uL/well of 2× dye load buffer were added. The cells were then incubated for 60 min at room temperature in the dark. Chloride-free stimulation buffer containing Tl^+ and K^+ at 5× final concentration (5× concentration: 5 mM in both cases) and test compound at 1× final concentration, were prepared during the incubation. The cells were then assayed in a FDSS7000EX Functional Drug Screening System (Hamamatsu). Following 60 sec of baseline fluorescence signal reading at 0.1 Hz, and 10 sec at 1 Hz, 25 uL/well of stimulation buffer were added and the fluorescence continuously measured for 50 sec at 1 Hz followed, by 4 min at 0.1 Hz. Compound effect was quantified using AUC as readout and normalized to a reference compound, which was included on each plate.", "units": {"EC50": "nM"}, "values": [
      {"compound": "O=C(CC1(O)CC(F)(F)C1)N[C@@H](COC(F)F)c1cccc(OC(F)F)c1", "note": "[Example 26, (R)-2-(3,3-difluoro-1-hydroxycyclobutyl)-N-(2-(difluoromethoxy)-1-(3-(difluoromethoxy)phenyl)ethyl)acetamide]", "EC50": 960},
      {"compound": "CC(C)(C)[C@@H](O)CC(=O)N[C@@H](CC#N)c1cccc(OC(F)(F)F)c1", "note": "[Example 24, (S)—N—((S)-2-cyano-1-(3-(trifluoromethoxy)phenyl)ethyl)-3-hydroxy-4,4-dimethylpentanamide]", "EC50": 2400},
      {"compound": "CC(O)(CC(=O)N[C@@H](COC(F)F)c1cccc(OC(F)(F)F)c1)C1CC1", "note": "(single isomer, unassigned) [Example 11b]", "EC50": 1700},
      {"compound": "O=C(CC1(O)CC(F)(F)C1)N[C@@H](CC(F)F)c1cccc(OC(F)(F)F)c1", "note": "[Example 35, (S)—N-(3,3-difluoro-1-(3-(trifluoromethoxy)phenyl)propyl)-2-(3,3-difluoro-1-hydroxycyclobutyl)acetamide]", "EC50": 3500},
      {"compound": "O=C(CC(O)C1CCCC1)N[C@@H](COC(F)F)c1cccc(OC(F)F)c1", "note": "(single isomer, unassigned) [Example 16a]", "EC50": 2600},
      {"compound": "O=C(CC1(O)CC(F)(F)C1)N[C@@H](COC1CC1)c1cccc(OC(F)(F)F)c1", "note": "[Example 28, (R)—N-(2-cyclopropoxy-1-(3-(trifluoromethoxy)phenyl)ethyl)-2-(3,3-difluoro-1-hydroxycyclobutyl)acetamide]", "EC50": 3200},
      {"compound": "CC(C)(C)C(O)CC(=O)N[C@@H](COC(F)F)c1cccc(OC(F)F)c1", "note": "(single isomer, unassigned) [Example 1a]", "EC50": 7600},
      {"compound": "O=C(CC(O)C1CCCC1)N[C@@H](COC(F)F)c1cccc(OC(F)F)c1", "note": "(single isomer, unassigned) [Example 16b]", "EC50": 430},
      {"compound": "CC(O)(CC(=O)N[C@@H](COC(F)F)c1cccc(OC(F)(F)F)c1)C1(F)CC1", "note": "(single isomer, unassigned) [Example 10a]", "EC50": 660},
      {"compound": "CCC[C@H](NC(=O)CC1(O)CC(F)(F)C1)c1cccc(OC(F)F)c1", "note": "[Example 31, (S)-2-(3,3-difluoro-1-hydroxycyclobutyl)-N-(1-(3-(difluoromethoxy)phenyl)butyl)acetamide]", "EC50": 2600},
      {"compound": "N#CC[C@H](NC(=O)CC1(O)CC(F)(F)C1)c1cccc(OC(F)(F)F)c1", "note": "[Example 34, (S)—N-(2-cyano-1-(3-(trifluoromethoxy)phenyl)ethyl)-2-(3,3-difluoro-1-hydroxycyclobutyl)acetamide]", "EC50": 2500},
      {"compound": "CC(C)(C)[C@@H](O)CC(=O)N[C@@H](COC(F)(F)F)c1cccc(OC(F)F)c1", "note": "[Example 18, (S)—N—((R)-1-(3-(difluoromethoxy)phenyl)-2-(trifluoromethoxy)ethyl)-3-hydroxy-4,4-dimethylpentanamide]", "EC50": 950},
      {"compound": "CC(O)(CC(=O)N[C@@H](COC(F)F)c1cccc(OC(F)F)c1)CC(F)(F)F", "note": "(single isomer, unassigned) [Example 12b]", "EC50": 6200},
      {"compound": "CC(O)(CC(=O)N[C@@H](COC(F)F)c1cccc(OC(F)F)c1)C1(F)CC1", "note": "(single isomer, unassigned) [Example 9b]", "EC50": 9200},
      {"compound": "O=C(CC1(O)CC(F)(F)C1)N[C@@H](COC(F)(F)F)c1cccc(OC(F)F)c1", "note": "[Example 30, (R)-2-(3,3-difluoro-1-hydroxycyclobutyl)-N-(1-(3-(difluoromethoxy)phenyl)-2-(trifluoromethoxy)ethyl)acetamide]", "EC50": 1800},
      {"compound": "CC(C)(C)[C@@H](O)CC(=O)N[C@@H](COC1CC1)c1cccc(OC(F)F)c1", "note": "[Example 17, (S)—N—((R)-2-cyclopropoxy-1-(3-(difluoromethoxy)phenyl)ethyl)-3-hydroxy-4,4-dimethylpentanamide]", "EC50": 1500},
      {"compound": "CC[C@H](NC(=O)CC1(O)CC(F)(F)C1)c1cccc(OC(F)(F)F)c1", "note": "[Example 33, (S)-2-(3,3-difluoro-1-hydroxycyclobutyl)-N-(1-(3-(trifluoromethoxy)-phenyl)propy) acetamide]", "EC50": 2100},
      {"compound": "O=C(CC1(O)CC(F)(F)C1)N[C@@H](CCC(F)F)c1cccc(OC(F)F)c1", "note": "[Example 32, (S)-2-(3,3-difluoro-1-hydroxycyclobutyl)-N-(1-(3-(difluoromethoxy)phenyl)-4,4-difluorobutyl)acetamide]", "EC50": 2500},
      {"compound": "CC(C)CC(C)(O)CC(=O)N[C@@H](COC(F)F)c1cccc(OC(F)F)c1", "note": "(single isomer, unassigned) [Example 13b]", "EC50": 360},
      {"compound": "CCC[C@H](NC(=O)CC(O)C1CC(F)(F)C1)c1cccc(OC(F)F)c1", "note": "(single isomer, unassigned) [Example 7a]", "EC50": 4000},
      {"compound": "O=C(CC(O)C1CC(F)(F)C1)N[C@@H](COC(F)F)c1cccc(OC(F)F)c1", "note": "(single isomer, unassigned) [Example 5b]", "EC50": 4500},
      {"compound": "CCOC[C@H](NC(=O)CC(O)C(C)(C)C)c1cccc(OC(F)(F)F)c1", "note": "(single isomer, unassigned) [Example 2a]", "EC50": 10000},
      {"compound": "C[C@H](NC(=O)C[C@H](O)C(C)(C)C)c1cccc(OC(F)F)c1", "note": "[Example 23, (S)—N—((S)-1-(3-(difluoromethoxy)phenyl)ethyl)-3-hydroxy-4,4-dimethylpentanamide]", "EC50": 1500},
      {"compound": "O=C(CC(O)C1CC(F)(F)C1)N[C@@H](COC(F)F)c1cccc(OC(F)F)c1", "note": "(single isomer, unassigned) [Example 5a]", "EC50": 1200},
      {"compound": "CC(C)(C)[C@@H](O)CC(=O)N[C@@H](CCC#N)c1cccc(OC(F)(F)F)c1", "note": "[Example 25, (S)—N—((S)-3-cyano-1-(3-(trifluoromethoxy)phenyl)propyl)-3-hydroxy-4,4-dimethylpentanamide]", "EC50": 1900},
      {"compound": "O=C(CC1(O)CC(F)(F)C1)N[C@@H](COC(F)F)c1cccc(OC(F)(F)F)c1", "note": "[Example 27, (R)-2-(3,3-difluoro-1-hydroxycyclobutyl)-N-(2-(difluoromethoxy)-1-(3-(trifluoromethoxy)phenyl)ethyl)acetamide]", "EC50": 2300},
      {"compound": "CC(O)(CC(=O)N[C@@H](COC(F)F)c1cccc(OC(F)F)c1)CC(F)(F)F", "note": "(single isomer, unassigned) [Example 12a]", "EC50": 1300},
      {"compound": "COC[C@H](NC(=O)C[C@](C)(O)C1(F)CC1)c1cccc(OC(F)(F)F)c1", "note": "(single isomer, unassigned) [Example 36a]", "EC50": 2700},
      {"compound": "CC(O)(CC(=O)N[C@@H](COC(F)F)c1cccc(OC(F)(F)F)c1)C1(F)CC1", "note": "(single isomer, unassigned) [Example 10b]", "EC50": 4100},
      {"compound": "CC(C)(C)C(O)CC(=O)N[C@@H](COC(F)F)c1cccc(OC(F)F)c1", "note": "(single isomer, unassigned) [Example 1b]", "EC50": 420},
      {"compound": "CCC1(C(O)CC(=O)N[C@@H](COC(F)F)c2cccc(OC(F)F)c2)CC1", "note": "(single isomer, unassigned) [Example 8b]", "EC50": 1200},
      {"compound": "CC(C)CC(C)(O)CC(=O)N[C@@H](COC(F)F)c1cccc(OC(F)F)c1", "note": "(single isomer, unassigned) [Example 13a]", "EC50": 960},
      {"compound": "CC(C)C(C)(O)CC(=O)N[C@@H](COC(F)F)c1cccc(OC(F)F)c1", "note": "(single isomer, unassigned) [Example 14a]", "EC50": 5200},
      {"compound": "CCC[C@H](NC(=O)CC(O)C1CC(F)(F)C1)c1cccc(OC(F)F)c1", "note": "(single isomer, unassigned) [Example 7b]", "EC50": 25000},
      {"compound": "CCOC[C@H](NC(=O)CC(O)C(C)(C)C)c1cccc(OC(F)(F)F)c1", "note": "(single isomer, unassigned) [Example 2b]", "EC50": 1800},
      {"compound": "CC(C)C(C)(O)CC(=O)N[C@@H](COC(F)F)c1cccc(OC(F)F)c1", "note": "(single isomer, unassigned) [Example 14b]", "EC50": 1300},
      {"compound": "CC(C)(C)[C@@H](O)CC(=O)N[C@@H](COC(F)(F)F)c1cccc(OC(F)(F)F)c1", "note": "[Example 19, (S)—N—((R)-1-(3-(trifluoromethoxy)phenyl)-2-(trifluoromethoxy)ethyl)-3-hydroxy-4,4-dimethylpentanamide]", "EC50": 940},
      {"compound": "O=C(CC(O)C1CC(F)(F)C1)N[C@@H](COC(F)F)c1cccc(OC(F)(F)F)c1", "note": "(single isomer, unassigned) [Example 6b]", "EC50": 1100},
      {"compound": "CC(C)(C)[C@@H](O)CC(=O)N[C@@H](CCC(F)F)c1cccc(OC(F)F)c1", "note": "[Example 21, (S)—N—((S)-1-(3-(difluoromethoxy)phenyl)-4,4-difluorobutyl)-3-hydroxy-4,4-dimethylpentanamide]", "EC50": 1000},
      {"compound": "O=C(CC(O)C1(C(F)(F)F)CC1)N[C@@H](COC(F)F)c1cccc(OC(F)(F)F)c1", "note": "(single isomer, unassigned) [Example 4b]", "EC50": 2900},
      {"compound": "CC1(C)CC(C(O)CC(=O)N[C@@H](COC(F)F)c2cccc(OC(F)F)c2)C1", "note": "(single isomer, unassigned) [Example 15a]", "EC50": 3700},
      {"compound": "CC(O)(CC(=O)N[C@@H](COC(F)F)c1cccc(OC(F)F)c1)C1(F)CC1", "note": "(single isomer, unassigned) [Example 9a]", "EC50": 1500}
    ]}
  ]
}
